Assay results as given in patent US7138361B2, “Herbicidal heterocycles” (E. I. du Pont de Nemours and Company, priority 2000, dated 2006).

Key:
Type in all cases: in vivo
[1] = tested on: barnyardgrass (Echinochloa crus-galli); assay: Test C flooded paddy test; conditions: for Barnyardgrass plant response rating: Flooded Paddy, Rate 500 g/ha, scale 0 to 100, 0 no effect, 100 complete control; for Plant response rating, Barnyardgrass / Plant response rating (scale 0 to 100), Barnyardgrass: flooded paddy test; for Plant response rating, Barnyardgrass: scale 0 to 100 (0 no effect, 100 complete control); for Plant response rating (scale 0 to 100), Barnyardgrass: Rate 62 g/ha, visually evaluated after 12 to 14 days, 0 = no effect, 100 = complete control
Method in brief: (§1)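 Ratings come from visual comparison with control plants after 12 to 14 days in the greenhouse. Each species was at the 2-leaf stage when the flooded paddy was treated. Scores run from 0, meaning no effect, to 100, meaning complete control.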

rice (Oryza saliva) [2] = assay: Test C flooded paddy test; conditions: for Rice plant response rating: Flooded Paddy, Rate 500 g/ha, scale 0 to 100, 0 no effect, 100 complete control; for Plant response rating, Rice / Plant response rating (scale 0 to 100), Rice: flooded paddy test; for Plant response rating, Rice: scale 0 to 100 (0 no effect, 100 complete control); for Plant response rating (scale 0 to 100), Rice: Rate 62 g/ha, visually evaluated after 12 to 14 days, 0 = no effect, 100 = complete control
Method in brief: as §1

[3] = tested on: smallflower flatsedge (Cyperus difformis); assay: Test C flooded paddy test; conditions: for Flatsedge plant response rating: Flooded Paddy, Rate 500 g/ha, scale 0 to 100, 0 no effect, 100 complete control; for Plant response rating, Flatsedge / Plant response rating (scale 0 to 100), Flatsedge: flooded paddy test; for Plant response rating, Flatsedge: scale 0 to 100 (0 no effect, 100 complete control); for Plant response rating (scale 0 to 100), Flatsedge: Rate 62 g/ha, visually evaluated after 12 to 14 days, 0 = no effect, 100 = complete control
Method in brief: as §1

[4] = tested on: duck salad (Heteranthera limosa); assay: Test C flooded paddy test; conditions: for Ducksalad plant response rating: Flooded Paddy, Rate 500 g/ha, scale 0 to 100, 0 no effect, 100 complete control; for Plant response rating, Ducksalad / Plant response rating (scale 0 to 100), Ducksalad: flooded paddy test; for Plant response rating, Ducksalad: scale 0 to 100 (0 no effect, 100 complete control); for Plant response rating (scale 0 to 100), Ducksalad: Rate 62 g/ha, visually evaluated after 12 to 14 days, 0 = no effect, 100 = complete control
Method in brief: as §1

[5] = tested on: blackgrass (Alopecurus myosuroides); assay: Test B postemergence
Method in brief: (§2)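 Visual injury scores, 0 = no effect to 100 = complete control, assigned against controls after 13 to 15 days in the greenhouse. Compounds formulated in non-phytotoxic solvent plus surfactant and applied to soil after planting (pre) or onto foliage of 1- to 4-leaf plants (post).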

[6] = tested on: cocklebur (Xanthium strumarium); assay: Test B postemergence
Method in brief: as §2

[7] = tested on: crabgrass (Digitaria sanguinalis); assay: Test B postemergence
Method in brief: as §2

[8] = tested on: wheat (Triticum aestivum); assay: Test B postemergence
Method in brief: as §2

[9] = tested on: giant foxtail (Setaria faberii); assay: Test B postemergence
Method in brief: as §2

[10] = tested on: pigweed (Amaranthus retroflexus); assay: Test B postemergence
Method in brief: as §2

wild oat (Avena fatua) = assay: Test B postemergence
Method in brief: as §2

Sunflower [11] = assay: Test C preemergence; conditions: scale 0 to 100
Nightshade = assay: Test C preemergence; conditions: Rate 500 g/ha, visual evaluation after 12 to 14 days
corn (Zea mays) = assay: Test B preemergence
Method in brief: as §2

[12] = tested on: morning glory (Ipomoea hederacea); assay: Test B preemergence
Method in brief: as §2

[13] = tested on: cocklebur (Xanthium strumarium); assay: Test B preemergence
Method in brief: as §2

[14] = tested on: velvetleaf (Abutilon theophrasti); assay: Test B preemergence
Method in brief: as §2

[15] = tested on: barnyardgrass (Echinochloa crus-galli); assay: Test B preemergence
Method in brief: as §2

rice (Oryza saliva) [16] = assay: Test B preemergence
Method in brief: as §2

[17] = tested on: lambsquarters (Chenopodium album); assay: Test B preemergence
Method in brief: as §2

[18] = tested on: crabgrass (Digitaria sanguinalis); assay: Test B preemergence
Method in brief: as §2

[19] = tested on: Surinam grass (Brachiaria decumbens); assay: Test B preemergence
Method in brief: as §2

[20] = tested on: giant foxtail (Setaria faberii); assay: Test B preemergence
Method in brief: as §2

[21] = tested on: pigweed (Amaranthus retroflexus); assay: Test B preemergence
Method in brief: as §2

Sunflower [22] = assay: Test C preemergence; conditions: Rate 250 g/ha, scale 0 to 100, 0 no effect, 100 complete control
[23] = Rate 125 g/ha, scale 0 to 100, 0 no effect, 100 complete control
[24] = Rate 500 g/ha, scale 0 to 100, 0 is no effect, 100 is complete control, 13 to 15 days
[25] = Preemergence, Rate 500 g/ha, scale 0 to 100, 0 no effect, 100 complete control
[26] = preemergence, Rate 125 g/ha, scale of 0 to 100 where 0 is no effect and 100 is complete control, 13 to 15 days
[27] = Rate 500 g/ha, scale 0 (no effect) to 100 (complete control), 13 to 15 days

CCCC(C)c1ccn(C2OCN(c3cccc(OC(F)F)c3)C2=O)n1 (stereo not drawn) [Compound 132]
Barnyardgrass plant response rating [1]: 100 | Plant response rating, Barnyardgrass ([1]; Rate 125 g/ha): 70 | Plant response rating, Barnyardgrass ([1]; Rate 250 g/ha): 100 | Plant response rating (scale 0 to 100), Barnyardgrass [1]: 40 | Rice plant response rating (rice (Oryza saliva) [2]): 90 | Plant response rating, Rice (rice (Oryza saliva) [2]; Rate 125 g/ha): 20 | Plant response rating, Rice (rice (Oryza saliva) [2]; Rate 250 g/ha): 20 | Plant response rating (scale 0 to 100), Rice (rice (Oryza saliva) [2]): 0 | Flatsedge plant response rating [3]: 90 | Plant response rating, Flatsedge ([3]; Rate 125 g/ha): 90 | Plant response rating, Flatsedge ([3]; Rate 250 g/ha): 90 | Plant response rating (scale 0 to 100), Flatsedge [3]: 90 | Ducksalad plant response rating [4]: 80 | Plant response rating, Ducksalad ([4]; Rate 125 g/ha): 20 | Plant response rating, Ducksalad ([4]; Rate 250 g/ha): 40 | Plant response rating (scale 0 to 100), Ducksalad [4]: 0 | Plant response rating, Blackgrass [5, 23]: 0 | Plant response rating, Blackgrass [5, 24]: 0 | Plant response rating, Cocklebur [6, 23]: 0 | Plant response rating, Cocklebur [6, 24]: 0 | Plant response rating, Crabgrass [7, 23]: 0 | Plant response rating, Wheat [8, 23]: 0 | Plant response rating, Foxtail, Giant [9, 23]: 0 | Plant response rating, Pigweed [10, 23]: 0 | Plant response rating, Wild Oat (wild oat (Avena fatua); [23]): 0 | Plant response rating, Sunflower (Sunflower [11]; Rate 62 g/ha): 0 | Plant response rating (0 to 100), Nightshade (Nightshade): 20 | Plant response rating, Corn (corn (Zea mays); [25]): 0 | Plant response rating, Corn (corn (Zea mays); [26]): 0 | Plant response rating, Morningglory [12, 25]: 0 | Plant response rating, Morningglory [12, 26]: 0 | Plant response rating, Cocklebur [13, 25]: 30 | Plant response rating, Cocklebur [13, 26]: 0 | Plant response rating, Velvetleaf [14, 25]: 30 | Plant response rating, Velvetleaf [14, 26]: 0 | Plant response rating, Barnyardgrass [15, 25]: 100 | Plant response rating, Barnyardgrass [15, 26]: 100 | Plant response rating, Rice (rice (Oryza saliva) [16]; [25]): 50 | Plant response rating, Rice (rice (Oryza saliva) [16]; [26]): 0 | Plant response rating, Lambsquarters [17, 25]: 100 | Plant response rating, Lambsquarters [17, 26]: 100 | Plant response rating, Crabgrass [18, 25]: 100 | Plant response rating, Crabgrass [18, 26]: 100 | Plant response rating, Surinam grass [19, 25]: 100 | Plant response rating, Surinam grass [19, 26]: 80 | Plant response rating, Foxtail, Giant [20, 25]: 100 | Plant response rating, Foxtail, Giant [20, 26]: 100 | Plant response rating, Pigweed [21, 25]: 100 | Plant response rating, Pigweed [21, 26]: 70 | Plant response rating, Sunflower (Sunflower [22]): 20

Cc1cc(C)nc(N2CCC(n3ccc(C(C)(C)C)n3)C2=O)c1 (stereo not drawn) [Compound 138]
Barnyardgrass plant response rating [1]: 100 | Plant response rating, Barnyardgrass ([1]; Rate 125 g/ha): 40 | Plant response rating, Barnyardgrass ([1]; Rate 250 g/ha): 100 | Plant response rating (scale 0 to 100), Barnyardgrass [1]: 0 | Rice plant response rating (rice (Oryza saliva) [2]): 70 | Plant response rating, Rice (rice (Oryza saliva) [2]; Rate 125 g/ha): 0 | Plant response rating, Rice (rice (Oryza saliva) [2]; Rate 250 g/ha): 30 | Plant response rating (scale 0 to 100), Rice (rice (Oryza saliva) [2]): 0 | Flatsedge plant response rating [3]: 100 | Plant response rating, Flatsedge ([3]; Rate 125 g/ha): 90 | Plant response rating, Flatsedge ([3]; Rate 250 g/ha): 100 | Plant response rating (scale 0 to 100), Flatsedge [3]: 90 | Ducksalad plant response rating [4]: 100 | Plant response rating, Ducksalad ([4]; Rate 125 g/ha): 20 | Plant response rating, Ducksalad ([4]; Rate 250 g/ha): 60 | Plant response rating (scale 0 to 100), Ducksalad [4]: 0 | Plant response rating, Blackgrass [5, 23]: 0 | Plant response rating, Blackgrass [5, 27]: 0 | Plant response rating, Cocklebur [6, 23]: 0 | Plant response rating, Cocklebur [6, 27]: 0 | Plant response rating, Crabgrass [7, 23]: 0 | Plant response rating, Crabgrass [7, 27]: 0 | Plant response rating, Wheat [8, 23]: 0 | Plant response rating, Wheat [8, 27]: 0 | Plant response rating, Foxtail, Giant [9, 23]: 0 | Plant response rating, Foxtail, Giant [9, 27]: 0 | Plant response rating, Pigweed [10, 23]: 0 | Plant response rating, Pigweed [10, 27]: 30 | Plant response rating, Wild Oat (wild oat (Avena fatua); [23]): 0 | Plant response rating, Wild Oat (wild oat (Avena fatua); [27]): 0 | Plant response rating, Sunflower (Sunflower [11]; Rate 31 g/ha): 0 | Plant response rating, Sunflower (Sunflower [11]; Rate 62 g/ha): 0 | Plant response rating, Corn (corn (Zea mays); [25]): 20 | Plant response rating, Corn (corn (Zea mays); [26]): 0 | Plant response rating, Morningglory [12, 25]: 100 | Plant response rating, Morningglory [12, 26]: 90 | Plant response rating, Cocklebur [13, 25]: 100 | Plant response rating, Cocklebur [13, 26]: 0 | Plant response rating, Velvetleaf [14, 25]: 0 | Plant response rating, Velvetleaf [14, 26]: 0 | Plant response rating, Barnyardgrass [15, 25]: 100 | Plant response rating, Barnyardgrass [15, 26]: 0 | Plant response rating, Rice (rice (Oryza saliva) [16]; [25]): 100 | Plant response rating, Rice (rice (Oryza saliva) [16]; [26]): 0 | Plant response rating, Lambsquarters [17, 25]: 100 | Plant response rating, Lambsquarters [17, 26]: 100 | Plant response rating, Crabgrass [18, 25]: 100 | Plant response rating, Crabgrass [18, 26]: 100 | Plant response rating, Surinam grass [19, 25]: 100 | Plant response rating, Surinam grass [19, 26]: 70 | Plant response rating, Foxtail, Giant [20, 25]: 100 | Plant response rating, Foxtail, Giant [20, 26]: 80 | Plant response rating, Pigweed [21, 25]: 100 | Plant response rating, Pigweed [21, 26]: 100 | Plant response rating, Sunflower (Sunflower [22]): 50
